Like-named read-outs stand apart in the source and are kept apart here. Starred links: 1 amine or outer side, 2 acyl side, 3 side chain; linkers in the order of their positions; H or OH if unused. Positions of bridges follow the written chain, without caps; N, C: chain ends. Non-standard residues stand in square brackets, D forms with d. Residues, ends and D or L forms follow the SMILES beside them. *: point of attachment. Phe(4-(CH2)5CO) = O=C([C@H](Cc1ccc(CCCCCC(=O)[*:3])cc1)N[*:1])[*:2]; NMePhe(3-Cl) = CN[C@@H](Cc1cccc(Cl)c1)C(=O)O; NMeF = CN[C@@H](Cc1ccccc1)C(=O)O; NMeGABA = CN(CCCC(=O)[*:2])[*:1]; NMeI = CC[C@H](C)[C@H](NC)C(=O)O; NMeL = CN[C@@H](CC(C)C)C(=O)O; NMeV = CN[C@H](C(=O)O)C(C)C; NMeS = CN[C@@H](CO)C(=O)O; NMeA = CN[C@@H](C)C(=O)O; Piperidide = C1CCN(*)CC1; dNMeA = CN[C@H](C)C(=O)O; β3hA = C[C@H](N)CC(=O)O; Sar = CNCC(=O)O; tBu = CC(C)(C)*
What was measured:
[1] = PAMPA (parallel artificial membrane permeability assay); format: in vitro ADME; conditions: PAMPA
Summary of the method: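 Artificial membrane was 10% (w/v) egg lecithin plus 0.5% (w/v) cholesterol in dodecane on a PVDF filter. A 10 mM DMSO stock was added at 0.5% (v/v) to donor buffer (50 mM MOPSO, pH 6.5, 5.0% glycocholic acid). After 18 h at 37 °C, LC/MS or LC/UV gave donor and acceptor levels for Pe.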

[2] = Metabolic stability in human hepatic microsome; format: in vitro ADME; conditions: for microsomal CLint at 1 uM: microsomes
[3] = membrane permeation rate (Pe), 50 mM MOPSO buffer pH 6.5 with 5.0% glycocholic acid, 37° C., 18 hours, read-out: iPAMPA Pe
[4] = pH 7.4, human hepatic microsome, NADPH(+), read-out: CL NADPH(+)

SMILES	Papp at 18 hours, 50 µM [1, 3]	microsomal CLint at 1 uM [2, 4]	Papp at 18 hours, 50 µM ([1]; pH 6.5)	microsomal CLint at 1 uM ([2]; human, pH 7.4, CL NADPH(+))	CL NADPH(+) ([2]; human hepatic microsome, NADPH(+))
CC[C@H](C)[C@@H]1NC(=O)[C@H](Cc2ccccc2)N(C)C(=O)[C@H](CC(C)C)NC(=O)[C@H](CC(C)C)NC(=O)[C@H](Cc2ccccc2)NC(=O)[C@H](CC(C)C)NC(=O)[C@@H](C)NC(=O)C[C@@H](C(=O)N(C)[C@@H](C)C(=O)N[C@@H](CC(C)C)C(=O)N[C@@H](C)C(=O)N[C@H](C(=O)N2CCCCC2)[C@@H](C)CC)NC(=O)[C@H](Cc2ccccc2)NC(=O)[C@H]([C@@H](C)O)NC1=O [DP-580] ([dA]LFLL[NMeF]ITFD[NMeA]LAI-Piperidide; lactam N-10)	0.13 ×10⁻⁶ cm/s	54 µL/min/mg			
CC(C)C[C@H]1C(=O)N[C@@H](C)C(=O)N(C)[C@@H](Cc2ccccc2)C(=O)N2CCC[C@H]2C(=O)N(C)[C@@H](CC(C)C)C(=O)N(C)[C@@H](C(C)C)C(=O)N[C@H](C(=O)N2CCCCC2)CC(=O)N(C)CCCC(=O)N[C@@H]([C@@H](C)O)C(=O)N(C)CC(=O)N(C)[C@@H](Cc2ccccc2)C(=O)N1C [DP-276] ([NMeGABA]T[Sar][NMeF][NMeL]A[NMeF]P[NMeL][NMeV]D-Piperidide; lactam N-11)			19 ×10⁻⁶ cm/s	68 µL/min/mg	
CC[C@H](C)[C@H](NC(=O)[C@H](CC(C)C)NC(=O)[C@H](CC(C)C)N(C)C(=O)CN(C)C(=O)[C@@H]1CC(=O)N[C@H](C)C(=O)N[C@@H]([C@@H](C)O)C(=O)N(C)[C@@H](CC(C)C)C(=O)N[C@@H]([C@@H](C)CC)C(=O)N(C)[C@@H](CC(C)C)C(=O)N[C@@H](CC(C)C)C(=O)N1)C(=O)N1CCCCC1 [DP-919] ([dA]T[NMeL]I[NMeL]LD[Sar][NMeL]LI-Piperidide; lactam N-7)	27 ×10⁻⁶ cm/s	128 µL/min/mg			
CC(C)C[C@H]1C(=O)NCC(=O)N[C@H](C(=O)N(C)[C@@H](Cc2ccccc2)C(=O)N[C@@H](C)C(=O)N2CCCCC2)CC(=O)N[C@H](C(C)C)C(=O)N[C@@H]([C@@H](C)O)C(=O)N(C)[C@@H](C)C(=O)N(C)[C@@H](Cc2ccccc2)C(=O)N[C@@H](C(C)C)C(=O)N(C)[C@@H](Cc2ccccc2)C(=O)N1C [DP-382] ([dV]T[NMeA][NMeF]V[NMeF][NMeL]GD[NMeF]A-Piperidide; lactam N-9)	49 ×10⁻⁶ cm/s	188 µL/min/mg			
CC(C)C[C@H]1C(=O)N(C)[C@@H](C(C)C)C(=O)N[C@@H](Cc2ccccc2)C(=O)N[C@H](C(=O)N(C)[C@@H](Cc2ccccc2)C(=O)N(C)[C@@H](Cc2ccccc2)C(=O)N[C@@H](C)C(=O)N2CCCCC2)CC(=O)N[C@H](C)C(=O)N[C@@H](C(C)C)C(=O)N(C)[C@@H](CC(C)C)C(=O)N[C@@H]([C@@H](C)O)C(=O)N(C)[C@@H](Cc2ccccc2)C(=O)NCC(=O)N1C [DP-501] ([dA]V[NMeL]T[NMeF]G[NMeL][NMeV]FD[NMeF][NMeF]A-Piperidide; lactam N-10)	0.23 ×10⁻⁶ cm/s	7 µL/min/mg			
CC(C)C[C@H]1C(=O)N[C@@H]([C@@H](C)O)C(=O)N(C)[C@@H](C)C(=O)N(C)[C@@H](CC(C)C)C(=O)N[C@H](C(=O)N2CCCCC2)CC(=O)N(C)CCCC(=O)N[C@@H](C)C(=O)N(C)[C@@H](Cc2ccccc2)C(=O)N[C@@H](Cc2ccccc2)C(=O)N1C [DP-128] ([NMeGABA]A[NMeF]F[NMeL]T[NMeA][NMeL]D-Piperidide; lactam N-9)	23 ×10⁻⁶ cm/s	276 µL/min/mg			
CC[C@H](C)[C@H]1C(=O)N[C@@H](C)CC(=O)N(C)[C@H](C)C(=O)N(C)[C@@H](Cc2cccc(Cl)c2)C(=O)N(C)[C@@H](CC(C)C)C(=O)N[C@@H]([C@@H](C)O)C(=O)N(C)CC(=O)N[C@@H](COC(C)(C)C)C(=O)N(C)[C@@H](CC(C)C)C(=O)N1C [DP-799] (cyclo([NMeI][β3hA][dNMeA][NMePhe(3-Cl)][NMeL]T[Sar]S(tBu)[NMeL]))	32 ×10⁻⁶ cm/s	222 µL/min/mg			
CC[C@H](C)[C@@H]1NC(=O)[C@H](CC(C)C)N(C)C(=O)CN(C)C(=O)[C@H]([C@@H](C)O)NC(=O)[C@H](CC(C)C)N(C)C(=O)[C@H](Cc2ccccc2)N(C)C(=O)[C@H](C)N(C)C(=O)[C@@H](C)NC(=O)C[C@@H](C(=O)N(C)[C@@H](Cc2ccccc2)C(=O)N[C@@H](C)C(=O)N2CCCCC2)NC(=O)[C@H](C(C)C)N(C)C1=O [DP-290] ([dA][NMeA][NMeF][NMeL]T[Sar][NMeL]I[NMeV]D[NMeF]A-Piperidide; lactam N-10)	19 ×10⁻⁶ cm/s	23 µL/min/mg			
CC(C)C[C@H]1C(=O)N[C@@H](COC(C)(C)C)C(=O)N[C@H](C(=O)N2CCCCC2)CC(=O)N(C)[C@@H](C)C(=O)N(C)[C@@H](C)C(=O)N(C)[C@@H](Cc2ccccc2)C(=O)N(C)[C@@H](CC(C)C)C(=O)N[C@@H]([C@@H](C)O)C(=O)N(C)CC(=O)N1C [DP-39] ([NMeA][NMeA][NMeF][NMeL]T[Sar][NMeL]S(tBu)D-Piperidide; lactam N-9)			16 ×10⁻⁶ cm/s		67
CC(C)C[C@@H]1NC(=O)[C@H](CC(C)C)N(C)C(=O)[C@H](C(C)C)NC(=O)[C@H](CC(C)C)N(C)C(=O)CN(C)C(=O)[C@H](CC(C)C)NC(=O)[C@H](CO)N(C)C(=O)[C@H](CC(C)C)N(C)C(=O)[C@H](CC(C)C)N(C)C(=O)C[C@H](C)NC(=O)[C@@H](CC(C)C)NC1=O [DP-642] (cyclo(L[Sar][NMeL]V[NMeL]L[dL][β3hA][NMeL][NMeL][NMeS]))	32 ×10⁻⁶ cm/s	65 µL/min/mg			
CC[C@H](C)[C@H](NC(=O)[C@H](Cc1ccccc1)N(C)C(=O)[C@@H]1CC(=O)N[C@@H](C)C(=O)N(C)[C@@H](CC(C)C)C(=O)N[C@@H]([C@@H](C)O)C(=O)N(C)CC(=O)N(C)[C@@H](Cc2ccccc2)C(=O)N[C@@H](CC(C)C)C(=O)N1)C(=O)N1CCCCC1 [DP-567] (A[NMeL]T[Sar][NMeF]LD[NMeF]I-Piperidide; lactam N-7)	30 ×10⁻⁶ cm/s	224 µL/min/mg			
CC[C@H](C)[C@@H]1NC(=O)[C@H](Cc2ccccc2)N(C)C(=O)[C@H](C)N(C)C(=O)[C@H]([C@@H](C)O)NC(=O)[C@H](CC(C)C)N(C)C(=O)[C@H](C)N(C)C(=O)C[C@@H](C(=O)N(C)[C@@H](Cc2ccccc2)C(=O)N[C@@H](C)C(=O)N2CCCCC2)NC(=O)[C@H](C(C)C)N(C)C(=O)[C@H](CC(C)C)N(C)C(=O)CN(C)C1=O [DP-492] ([NMeA][NMeL]T[NMeA][NMeF]I[Sar][NMeL][NMeV]D[NMeF]A-Piperidide; lactam N-10)	20 ×10⁻⁶ cm/s	61 µL/min/mg			
CC[C@H](C)[C@@H]1NC(=O)[C@H](CC(C)C)N(C)C(=O)[C@H](Cc2ccccc2)N(C)C(=O)[C@@H](C(C)C)NC(=O)C[C@H](C)NC(=O)[C@H](CC(C)C)N(C)C(=O)[C@H](C)N(C)C(=O)[C@H]([C@@H](C)O)NC(=O)[C@H](Cc2ccccc2)N(C)C(=O)[C@H](CC(C)C)N(C)C1=O [DP-781] (cyclo(I[NMeL][NMeF]T[NMeA][NMeL][β3hA][dV][NMeF][NMeL]))			29 ×10⁻⁶ cm/s	142 µL/min/mg	
CC[C@H](C)[C@H]1C(=O)N(C)[C@@H](CC(C)C)C(=O)N(C)[C@@H](Cc2ccccc2)C(=O)N[C@@H](CC(C)C)C(=O)N(C)[C@@H](C(C)C)C(=O)N[C@@H](Cc2ccccc2)C(=O)N[C@@H]([C@@H](C)O)C(=O)N[C@H](C(=O)N2CCCCC2)Cc2ccc(cc2)CCCCCC(=O)N[C@@H](C)C(=O)N1C [DP-847] (A[NMeI][NMeL][NMeF]L[NMeV]FT[Phe(4-(CH2)5CO)]-Piperidide; lactam N-9)	3.3 ×10⁻⁶ cm/s	329 µL/min/mg			
CC[C@H](C)[C@H](NC(=O)[C@H](Cc1ccccc1)N(C)C(=O)[C@H](C)N(C)C(=O)[C@@H](NC(=O)[C@@H]1CC(=O)N[C@@H](C)C(=O)N[C@@H]([C@@H](C)O)C(=O)N(C)[C@@H](CC(C)C)C(=O)N[C@@H](C(C)C)C(=O)N(C)[C@@H](Cc2cccc(Cl)c2)C(=O)N(C)[C@@H](CC(C)C)C(=O)N[C@@H](Cc2ccccc2)C(=O)N1)[C@@H](C)CC)C(=O)N1CCCCC1 [DP-928] (AT[NMeL]V[NMePhe(3-Cl)][NMeL]FDI[NMeA][NMeF]I-Piperidide; lactam N-8)	0.1 ×10⁻⁶ cm/s	60 µL/min/mg			
CC(C)C[C@H]1C(=O)N[C@H](C(=O)N2CCCCC2)CC(=O)N(C)CCCC(=O)N(C)[C@@H](Cc2ccccc2)C(=O)N[C@@H]([C@@H](C)O)C(=O)N(C)CC(=O)N[C@@H](COC(C)(C)C)C(=O)N1C [DP-535] ([NMeGABA][NMeF]T[Sar]S(tBu)[NMeL]D-Piperidide; lactam N-7)	21 ×10⁻⁶ cm/s	129 µL/min/mg			
CC[C@H](C)[C@H](NC(=O)[C@H](CC(C)C)N(C)C(=O)CN(C)C(=O)[C@@H]1CC(=O)N[C@H](C(C)C)C(=O)N[C@@H](C)C(=O)N[C@@H]([C@@H](C)O)C(=O)N(C)[C@@H](C)C(=O)N[C@@H](Cc2ccccc2)C(=O)N(C)[C@@H](CC(C)C)C(=O)N(C)[C@@H](Cc2ccccc2)C(=O)N(C)[C@@H](CC(C)C)C(=O)N1)C(=O)N1CCCCC1 [DP-576] ([dV]AT[NMeA]F[NMeL][NMeF][NMeL]D[Sar][NMeL]I-Piperidide; lactam N-9)	15 ×10⁻⁶ cm/s	17 µL/min/mg			
CC[C@H](C)[C@@H]1NC(=O)[C@H](C(C)C)N(C)C(=O)[C@H](C)N(C)C(=O)[C@H]([C@@H](C)O)NC(=O)[C@@H](C)N(C)C(=O)C[C@@H](C(=O)N2CCCCC2)NC(=O)[C@H](C)NC(=O)[C@H](Cc2ccccc2)N(C)C(=O)CN(C)C(=O)[C@H](CC(C)C)N(C)C1=O [DP-485] ([dNMeA]T[NMeA][NMeV]I[NMeL][Sar][NMeF]AD-Piperidide; lactam N-10)	5.9 ×10⁻⁶ cm/s	45 µL/min/mg			
